# From ChEMBL document CHEMBL2040733, “Doing the methylene shuffle--further insights into the inhibition of mitotic kinesin Eg5 with S-trityl L-cysteine” (Eur J Med Chem, 2012)
# Key:
# [1] = molecular target: T1, Kinesin-like protein KIF11 (Homo sapiens, UniProt P52732)
# T1 sequence (P52732 whole entry): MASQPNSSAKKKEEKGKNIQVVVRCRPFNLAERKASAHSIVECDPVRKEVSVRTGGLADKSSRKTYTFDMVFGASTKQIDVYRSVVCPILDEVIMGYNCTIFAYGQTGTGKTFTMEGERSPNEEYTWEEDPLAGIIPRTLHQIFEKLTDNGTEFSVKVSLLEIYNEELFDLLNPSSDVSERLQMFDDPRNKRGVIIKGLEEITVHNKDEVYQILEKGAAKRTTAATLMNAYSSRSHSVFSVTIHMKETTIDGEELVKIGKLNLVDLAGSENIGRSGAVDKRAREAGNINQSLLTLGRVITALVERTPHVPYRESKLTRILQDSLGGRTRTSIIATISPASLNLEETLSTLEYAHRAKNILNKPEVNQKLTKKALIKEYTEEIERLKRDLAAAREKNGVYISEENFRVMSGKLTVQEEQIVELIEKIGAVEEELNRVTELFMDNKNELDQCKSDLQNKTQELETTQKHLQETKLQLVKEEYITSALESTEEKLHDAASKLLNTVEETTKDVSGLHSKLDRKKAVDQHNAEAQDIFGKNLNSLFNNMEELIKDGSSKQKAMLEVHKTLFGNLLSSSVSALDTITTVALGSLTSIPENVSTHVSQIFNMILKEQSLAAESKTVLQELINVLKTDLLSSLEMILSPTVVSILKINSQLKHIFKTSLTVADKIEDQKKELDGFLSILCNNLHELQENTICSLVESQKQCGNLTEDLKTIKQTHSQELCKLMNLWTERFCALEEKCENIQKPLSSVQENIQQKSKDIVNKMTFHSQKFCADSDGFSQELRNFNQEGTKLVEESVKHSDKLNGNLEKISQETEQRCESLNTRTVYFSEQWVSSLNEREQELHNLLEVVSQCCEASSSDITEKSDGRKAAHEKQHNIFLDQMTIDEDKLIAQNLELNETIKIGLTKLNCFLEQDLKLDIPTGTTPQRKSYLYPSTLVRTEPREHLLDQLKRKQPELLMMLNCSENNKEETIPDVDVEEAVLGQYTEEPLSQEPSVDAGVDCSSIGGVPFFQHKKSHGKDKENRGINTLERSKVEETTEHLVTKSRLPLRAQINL
# Description: Inhibition of basal ATPase activity of Eg5 by coupled pyruvate kinase/lactate dehydrogenase assay
# K562 = assay: Cytotoxicity against human K562 cells after 72 hrs by Alamar blue assay; type: functional; settings: K562, 72 h
# [2] = Solubility of the compound in phosphate buffered saline at pH 7.4 after 2 hrs by turbidimetric analysis; type: physicochemical
# [3] = Cytotoxicity against wild type human KB-3-1 cells; type: functional
# KB-V1 = assay: Multidrug resistant ratio of GI50 for human KBV1 cells expressing p-glycoprotein to GI50 for wild type human KB-3-1 cells; type: functional
# BXPC-3 = assay: Cytotoxicity against human BxPC3 cells after 72 hrs by Alamar blue assay; type: functional; settings: BXPC-3, 72 h
# HCT-116 = assay: Cytotoxicity against human HCT116 cells after 72 hrs by Alamar blue assay; type: functional; settings: HCT-116, 72 h
# [4] = Cytotoxicity against human KBV1 cells expressing p-glycoprotein; type: functional; settings: KB-V1
# NCI-H1299 = assay: Cytotoxicity against human NCI-H1299 cells after 72 hrs by Alamar blue assay; type: functional; settings: NCI-H1299, 72 h
IC50 [1] [nM],SMILES,GI50 (K562) [nM],other results
790,NCCSC(Cc1ccccc1)(c1ccccc1)c1ccccc1F (racemic),,
578,NCCSC(Cc1ccccc1)(c1ccccc1)c1ccc(F)cc1 (racemic),,
514,N[C@@H](CSC(c1ccccc1)(c1ccccc1)c1ccncc1)C(=O)O,,
252,N[C@@H](CSC(Cc1ccccc1)(c1ccc(Cl)cc1)c1ccc(Cl)cc1)C(=O)O,,
217,N[C@@H](CSC(Cc1ccccc1)(c1ccccc1)c1ccccc1F)C(=O)O (mixture of isomers),,
684,NCCSC(Cc1ccccc1)(c1ccccc1)c1ccccc1,,solubility kinetic at 2 h [2]: > 100 µM
456,N[C@@H](CSC(Cc1ccc(Cl)cc1)(c1ccccc1)c1ccccc1)C(=O)O,,
568,N[C@@H](CSC(Cc1ccccc1)(c1ccc(Cl)cc1)c1cccc(Cl)c1)C(=O)O (mixture of isomers),,
404,NCCSC(Cc1ccccc1)(c1ccc(Cl)cc1)c1ccc(Cl)cc1,,
437,NCCSC(Cc1ccccc1)(c1ccc(Cl)cc1)c1cccc(Cl)c1 (racemic),,
229,NCCSC(Cc1ccccc1)(c1ccccc1)c1ccc(Cl)c(Cl)c1 (racemic),,
519,NCCSC(Cc1ccccc1)(c1ccccc1)c1cccc(Cl)c1 (racemic),,
666,NCCSC(Cc1ccccc1)(c1ccccc1)c1ccc(O)cc1 (racemic),,
15800,N[C@@H](CSC(CCc1ccccc1)(c1ccccc1)c1ccccc1)C(=O)O,,
5280,N[C@@H](CSC(Cc1ccc(Cl)c(Cl)c1)(c1ccccc1)c1ccccc1)C(=O)O,,
> 150000,N[C@@H](CSC(C(=O)c1ccccc1)(c1ccccc1)c1ccccc1)C(=O)O,,
261,Cc1ccc(C(Cc2ccccc2)(SCCN)c2ccc(C)cc2)cc1,,
> 50000,NCCSC(C(=O)c1ccccc1)(c1ccccc1)c1ccccc1,,
191,N[C@@H](CSC(Cc1ccccc1)(c1ccccc1)c1ccc(Cl)c(Cl)c1)C(=O)O (mixture of isomers),,
238,N[C@@H](CSC(Cc1cccc(Cl)c1)(c1ccccc1)c1ccccc1)C(=O)O,,

# More lines, now with the values behind:
SMILES,IC50 [1] [nM],GI50 (K562) [nM],other results
N[C@@H](CSC(Cc1ccccc1)(c1ccccc1)c1cccc(Cl)c1)C(=O)O (mixture of isomers),129,4540,
NCCSC(Cc1ccccc1)(c1ccc(F)cc1)c1ccc(F)cc1,588,,
N[C@@H](CSC(Cc1ccccc1)(c1ccc(F)cc1)c1ccc(F)cc1)C(=O)O (mixture of isomers),178,5120,
Cc1ccc(C(Cc2ccccc2)(SC[C@H](N)C(=O)O)c2ccc(C)cc2)cc1,106,2790,
N[C@@H](CSC(Cc1ccccc1)(c1ccccc1)c1ccccc1)C(=O)O,138,3140,GI50 [3]: 5330 nM; RatioGI50 (KB-V1): >10; GI50 (BXPC-3): 14300 nM; GI50 (HCT-116): 2370 nM; GI50 [4]: > 50000 nM; solubility kinetic at 2 h [2]: > 100 µM; GI50 (NCI-H1299): 6870 nM
NCCSC(c1ccccc1)(c1ccccc1)c1ccncc1,942,,
N[C@@H](CSC(Cc1ccccc1)(c1ccccc1)c1ccc(O)cc1)C(=O)O (mixture of isomers),159,18200,
N[C@@H](CSC(Cc1ccccc1)(c1ccccc1)c1ccc(F)cc1)C(=O)O (mixture of isomers),151,6100,
N[C@@H](CSC(Cc1ccccc1)(c1ccccc1)c1cccc(O)c1)C(=O)O (mixture of isomers),67.6,17700,
N[C@@H](CSC(Cc1ccccc1)(c1ccccc1)c1ccc(Cl)cc1)C(=O)O (mixture of isomers),58.6,2470,GI50 [3]: 4890 nM; RatioGI50 (KB-V1): >10; GI50 (BXPC-3): 3790 nM; GI50 (HCT-116): 2080 nM; GI50 [4]: > 50000 nM; GI50 (NCI-H1299): 3630 nM
NCCSC(c1ccccc1)(c1ccccc1)c1ccccc1,241,,
Cc1ccc(C(Cc2ccccc2)(SCCN)c2ccccc2)cc1 (racemic),172,2390,GI50 [3]: 1880 nM; RatioGI50 (KB-V1): 1; GI50 (BXPC-3): 4070 nM; GI50 (HCT-116): 1170 nM; GI50 [4]: 1720 nM; solubility kinetic at 2 h [2]: 6.5 µM; GI50 (NCI-H1299): 2500 nM
NCCSC(Cc1ccccc1)(c1ccccc1)c1cccc(O)c1 (racemic),256,2730,
Cc1ccc(C(Cc2ccccc2)(SC[C@H](N)C(=O)O)c2ccccc2)cc1 (mixture of isomers),168,1440,GI50 [3]: 2440 nM; RatioGI50 (KB-V1): >20; GI50 (BXPC-3): 4340 nM; GI50 (HCT-116): 1490 nM; GI50 [4]: > 50000 nM; solubility kinetic at 2 h [2]: 11.5 µM; GI50 (NCI-H1299): 2430 nM
NCCSC(Cc1ccccc1)(c1ccccc1)c1ccc(Cl)cc1 (racemic),141,3720,GI50 [3]: 5550 nM; RatioGI50 (KB-V1): 1; GI50 (BXPC-3): 4260 nM; GI50 (HCT-116): 2050 nM; GI50 [4]: 5780 nM; GI50 (NCI-H1299): 6790 nM
